These results are taken from PMC11545984, “1,3-Dipolar Cycloaddition of Nitrile Oxides and Nitrilimines to (−)-β-Caryophyllene: Stereoselective Synthesis of Polycyclic Derivatives and Their Biological Testing” (International Journal of Molecular Sciences, 2024).

Data set [1] has as its system influenza virus A/Puerto Rico/8/34 (H1N1). Description: Antiviral (cytoprotective) activity in MDCK cells, MTT. The class given is cell-based. Particulars: H1N1; infected MDCK cells, m.o.i. 0.01, 48 h, 50% cell protection; read-out: IC50.
The subject of the next data set is DU145. Put plainly: Initial cytotoxicity testing (MTT test), DU145. The class given is cell-based, human. To be noted: Homo sapiens, DU-145, 72 h, read-out: cytotoxicity DU145. The protocol:
(§1) Colon cancer (HCT116, HT29), breast cancer (MCF7, SKBR3), melanoma (SK-MEL28), lung cancer (A549), prostate cancer (DU145), human normal cells (VA-13 and HEK293), and murine mammary cell lines (EMT6) were purchased from ATCC (Manassas, VA, USA). Cells were routinely grown in RPMI 1640 culture medium, supplemented with 10% fetal bovine serum, glutamine, and 100 U/mL penicillin. HCT116, HT29, MCF7, SKBR3, SK-MEL28, A549, DU145, VA-13, HEK293, and EMT6 cells were grown in flasks in RPMI 1640 fresh culture medium with supplements at 37 °C and 5% CO2. Cells were grown as monolayer cultures, and the cells in the exponential growth phase were trypsinized and suspended in the supplemented RPMI 1640 medium.
(§2) To evaluate the cytotoxicity of the compounds, we placed cells in (20–30) × 10^3 cells/mL concentrations in 96-well culture plates for 24 h. Cells were counted after treatment with Trypan blue solution (0.4%). They were then exposed to two different concentrations of compounds 16–30 (50–100 µM) dilutions in pre-incubated cells at 37 °C for 72 h. In control wells with untreated cells, only (DMSO + PBS) was added. Cell viability was measured by the standard MTT test. The stock solutions of each compound were prepared in DMSO following by preparation of serial dilutions in PBS.
(§3) The absorbance was measured at 540 nm using a Multiskan™ FC microplate photometer and the Skanlt software 6.1 RE for microplate reader, both from Thermo Scientific (Waltham, MA, USA). Experiments were carried out in triplicate; to perform the statistical analysis, more concentrations should be evaluated.
(Tetrazolium assays rely on reduction of a dye to a coloured formazan, in cell work by metabolically active cells.)

Data set [2] is described as follows: Initial cytotoxicity testing (MTT test), VA-13. The class given is cell-based, human. To be noted: human healthy cells, MTT, 72 h, two concentrations 50–100 µM. On the procedure: as §1, §2, §3
Another data set concerns A549. Description: Initial cytotoxicity testing (MTT test), A549. The class given is cell-based, human. Particulars: Homo sapiens, A549, 72 h, read-out: cytotoxicity A549. The protocol: as §1, §2, §3
The nature of another data set: in vitro. To be noted: dog.
Data set [3] is described as follows: Initial cytotoxicity testing (MTT test), HEK293. Particulars: human healthy cells, MTT, 72 h, two concentrations 50–100 µM. The class given is cell-based, human. On the procedure:
as §1, §2, §3

Another data set concerns VA-13. Description: Initial cytotoxicity testing (MTT test), VA-13. The class given is cell-based, human. Particulars: Homo sapiens, VA-13; normal cells, initial testing. The protocol:
as §1, §2, §3

In another data set the test system is HEK293. Put plainly: Initial cytotoxicity testing (MTT test), HEK293. The class given is cell-based, human. To be noted: Homo sapiens, HEK293; normal cells, initial testing. On the procedure:
as §1, §2, §3

For the compound `C/C1=C\CC[C@@]2(CC(c3ccc(Cl)cc3)=NO2)[C@H]2CC(C)(C)[C@@H]2CC1` [Compound 16a, (1S,2R,9R,E)-3′-(4-Chlorophenyl)-6,10,10-trimethyl-4′H-spiro[bicyclo [7.2.0]undecane-2,5′-isoxazol]-5-ene], the IC50 was 9.8 ± 1.3 µM in data set [1], more than 50 µM in the data set with DU145 and more than 50 µM in the data set with A549. In addition, the IC50 at 72 h in data set [2] and in data set [3] was more than 50 µM throughout. This compound also gave a CC50 at 48 h in “in vitro” of 125 ± 6.5 µM.

For the compound `C=C1CC[C@@H]2C(c3ccc(Cl)cc3)=NO[C@@]2(C)CC[C@@H]2[C@@H]1CC2(C)C` [Compound 16b, (3aR,6aS,8aR,10aS)-3-(4-chlorophenyl)-8,8,10a-trimethyl-6-methylene-3a,5,6,6a,7,8,8a,9,10,10a-decahydro-4H-cyclobuta [5,6]cyclonona [1,2-d]isoxazole], the IC50 in data set [1] is 16.8 ± 2.2 µM; with DU145, more than 50 µM; with A549 it was more than 50 µM. Also, the IC50 at 72 h in data set [2] and in data set [3] was more than 50 µM throughout. The compound also returned a CC50 at 48 h in the data set “in vitro” of 20.2 ± 1.9 µM.

With `CC1=CCCC2(CC(c3cc(Br)ccc3O)=NO2)C2CC(C)(C)C2CC1` [Compound 18a, 4-Bromo-2-((1S,2R,9R,E)-6,10,10-trimethyl-4′H-spiro[bicyclo [7.2.0]undecane-2,5′-isoxazol]-5-en-3′-yl)phenol], the IC50 in data set [1] was 4.78 ± 0.6 µM; in the data set on DU145, more than 50 µM; in the data set with A549 it was more than 50 µM. Further, the IC50 at 72 h in data set [2] and in data set [3] was more than 50 µM in each case. The same compound gave a CC50 at 48 h in the data set “in vitro” of 25.1 ± 1.8 µM.

Consider `C=C1CC[C@H]2C(c3cc(Br)ccc3O)=NO[C@]2(C)CC[C@@H]2[C@@H]1CC2(C)C` [Compound 18b, 4-bromo-2-((3aS,6aS,8aR,10aR)-8,8,10a-trimethyl-6-methylene-3a,5,6,6a,7,8,8a,9,10,10a-decahydro-4H-cyclobuta [5,6]cyclonona [1,2-d]isoxazol-3-yl)phenol], for which the IC50 in the data set on DU145 is more than 50 µM; in the data set with VA-13 it was 50 to 100 µM; in the data set on A549, more than 50 µM; with HEK293, 50 to 100 µM. Also, the IC50 at 72 h in data set [2] and in data set [3] was 50 to 100 µM throughout.

Take `C/C1=C\CC[C@@]2(CC(Br)=NO2)[C@H]2CC(C)(C)[C@@H]2CC1` [Compound 19a, (1S,2R,9R,E)-3′-Bromo-6,10,10-trimethyl-4′H-spiro[bicyclo [7.2.0]undecane-2,5′-isoxazol]-5-ene]: the figures for the IC50 (in data set [1]; in the data set on DU145; in the data set with A549) were more than 12.3 µM, more than 50 µM and more than 50 µM, respectively. For the same compound, the IC50 at 72 h in data set [2] and in data set [3] was more than 50 µM in each case. In “in vitro”, this compound came in with a CC50 at 48 h of 19.6 ± 1.1 µM.

Regarding `C=C1CC[C@H]2C(Br)=NO[C@]2(C)CC[C@@H]2[C@@H]1CC2(C)C` [Compound 19b, (3aR,6aS,8aR,10aR)-3-bromo-8,8,10a-trimethyl-6-methylene-3a,5,6,6a,7,8,8a,9,10,10a-decahydro-4H-cyclobuta [5,6]cyclonona [1,2-d]isoxazole], in data set [1], the IC50 is more than 33.7 µM. In the data set “in vitro”, the CC50 at 48 h stood at 44.2 ± 3.6 µM.

As for `C=C1CC[C@@H]2C(C)=NN(c3ccccc3)[C@@]2(C)CC[C@@H]2[C@@H]1CC2(C)C` [Compound 21b, (3aS,6aS,8aR,10aS)-3,8,8,10a-tetramethyl-6-methylene-1-phenyl-1,3a,4,5,6,6a,7,8,8a,9,10,10a-dodecahydrocyclobuta [6,7]cyclonona [1,2-c]pyrazole], the IC50 in data set [1] was more than 297 µM; with DU145 it was more than 50 µM; in the data set on A549, more than 50 µM. Also, the IC50 at 72 h in data set [2] and in data set [3] was more than 50 µM throughout. The compound further gave a CC50 at 48 h in the data set “in vitro” of 375 ± 15.6 µM.

On to `C/C1=C\CC[C@@]2(CC(c3ccccc3)=NN2c2ccccc2)[C@H]2CC(C)(C)[C@@H]2CC1` [Compound 22a, (1S,2R,9R,E)-6,10,10-Trimethyl-2′,5′-diphenyl-2′,4′-dihydrospiro[bicyclo [7.2.0]undecane-2,3′-pyrazol]-5-ene], for which the IC50 is 72.7 ± 9.2 µM in data set [1]; more than 50 µM in the data set with DU145; 50 to 100 µM in the data set on VA-13; more than 50 µM in the data set with A549; 50 to 100 µM in the data set with HEK293. The IC50 at 72 h in data set [2] and in data set [3] was 50 to 100 µM each time. In addition, the CC50 at 48 h in “in vitro” was determined as 170 ± 12.1 µM.

In the case of `C=C1CC[C@H]2C(c3ccccc3)=NN(c3ccccc3)[C@]2(C)CC[C@@H]2[C@@H]1CC2(C)C` [Compound 22b, (3aR,6aS,8aR,10aR)-8,8,10a-trimethyl-6-methylene-1,3-diphenyl-1,3a,4,5,6,6a,7,8,8a,9,10,10a-dodecahydrocyclobuta [6,7]cyclonona [1,2-c]pyrazole], the IC50 is more than 9.28 µM in data set [1]; more than 50 µM with DU145; 50 to 100 µM with VA-13; more than 50 µM in the data set with A549; 50 to 100 µM with HEK293. Besides, the IC50 at 72 h in data set [2] and in data set [3] was less than 50 µM each time. Moreover, the CC50 at 48 h in “in vitro” was found to be 25.1 ± 1.6 µM.

As for `C=C1CC[C@H]2C(c3c(OC)cccc3OC)=NN(c3c(Cl)cc(Cl)cc3Cl)[C@]2(C)CC[C@@H]2[C@@H]1CC2(C)C` [Compound 23b, (3aR,6aS,8aR,10aR)-3-(2,6-dimethoxyphenyl)-8,8,10a-trimethyl-6-methylene-1-(2,4,6-trichlorophenyl)-1,3a,4,5,6,6a,7,8,8a,9,10,10a-dodecahydrocyclobuta [6,7]cyclonona [1,2-c]pyrazole], the IC50 in data set [1] is 178 ± 20.1 µM; with DU145, more than 50 µM; in the data set on A549, more than 50 µM. Further, the IC50 at 72 h in data set [2] and in data set [3] was more than 50 µM each time. For the same compound, the CC50 at 48 h in “in vitro” was more than 535 µM.

Turning to `COc1ccc(C2=NO[C@]3(CC[C@@H]4C(c5ccc(OC)cc5)=NO[C@@]4(C)CC[C@@H]4[C@@H]3CC4(C)C)C2)cc1` [Compound 26, (3aR,6R,6aS,8aR,10aS)-3,3′-Bis(4-methoxyphenyl)-8,8,10a-trimethyl-3a,4,5,6a,7,8,8a,9,10,10a-decahydro-4′H-spiro[cyclobuta [5,6]cyclonona [1,2-d]isoxazole-6,5′-isoxazole]], the IC50 is more than 652 µM in data set [1], more than 50 µM in the data set with DU145 and more than 50 µM with A549. For the same compound, the IC50 at 72 h in data set [2] and in data set [3] was more than 50 µM each time. The compound also gave a CC50 at 48 h in the data set “in vitro” of more than 652 µM.

On to `CC1(C)C[C@H]2[C@H]1CC[C@@]1(C)ON=C(Br)[C@@H]1CC[C@@]21CC(Br)=NO1` [Compound 28, (3aR,6R,6aS,8aR,10aR)-3,3′-Dibromo-8,8,10a-trimethyl-3a,4,5,6a,7,8,8a,9,10,10a-decahydro-4′H-spiro[cyclobuta [5,6]cyclonona [1,2-d]isoxazole-6,5′-isoxazole]], for which the IC50 is more than 8.7 µM in data set [1]; more than 50 µM with DU145; 50 to 100 µM with VA-13; more than 50 µM in the data set with A549; 50 to 100 µM with HEK293. For the same compound, the IC50 at 72 h in data set [2] and in data set [3] was 50 to 100 µM in each case. The compound further registered a CC50 at 48 h in “in vitro” of 13.8 ± 1.2 µM.

As for `CC1(C)C[C@H]2[C@H]1CC[C@]1(C)[C@@H](CC[C@@]23CC(c2ccccc2)=NN3c2ccccc2)C(c2ccccc2)=NN1c1ccccc1` [Compound 29, (3aR,6R,6aS,8aR,10aR)-8,8,10a-trimethyl-1,2′,3,5′-tetraphenyl-2′,3a,4,4′,5,6a,7,8,8a,9,10,10a-Dodecahydro-1H-spiro[cyclobuta [6,7]cyclonona [1,2-c]pyrazole-6,3′-pyrazole]], the IC50 in data set [1] was 102 ± 12.6 µM; in the data set on DU145, more than 50 µM; with A549, more than 50 µM. Also, the IC50 at 72 h in data set [2] and in data set [3] was more than 50 µM throughout. The same compound gave a CC50 at 48 h in the data set “in vitro” of more than 506 µM.

Take `COc1cccc(OC)c1C1=NN(c2c(Cl)cc(Cl)cc2Cl)[C@]2(CC[C@H]3C(c4c(OC)cccc4OC)=NN(c4c(Cl)cc(Cl)cc4Cl)[C@]3(C)CC[C@@H]3[C@@H]2CC3(C)C)C1` [Compound 30, (3aR,6R,6aS,8aR,10aR)-3,5′-Bis(2,6-dimethoxyphenyl)-8,8,10a-trimethyl-1,2′-bis(2,4,6-trichlorophenyl)-2′,3a,4,4′,5,6a,7,8,8a,9,10,10a-dodecahydro-1H-spiro[cyclobuta [6,7]cyclonona [1,2-c]pyrazole-6,3′-pyrazole]]: the values for the IC50 (in data set [1]; with DU145; with A549) were 71 ± 8.8 µM, more than 50 µM and more than 50 µM, respectively. The IC50 at 72 h in data set [2] and in data set [3] was more than 50 µM throughout. For the same compound, the CC50 at 48 h in “in vitro” was more than 330 µM.
